target: recombinant full length HPK-1 enzyme (Homo sapiens (Human), UniProt Q92918); test: HPK-1 biochemical enzyme assay (ADP-Glo kinase inhibition); settings: recombinant full length HPK-1 6.8 nM, 10 μM ATP, 12.5 μM MBP, 30 mins at 25° C.
Method in brief: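 Recombinant full-length human HPK-1 (6.8 nM) incubated 30 min at 25° C. with 10 μM ATP and 12.5 μM swine MBP in 40 mM Tris pH 7.4, 20 mM MgCl2, 50 μM DTT, 0.1 mg/mL BSA. ADP measured by ADP-Glo; IC50 from 10 concentrations, normalized to no-enzyme and vehicle controls.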

recombinant full length HPK-1 enzyme, sequence (Q92918 whole entry, species assumed): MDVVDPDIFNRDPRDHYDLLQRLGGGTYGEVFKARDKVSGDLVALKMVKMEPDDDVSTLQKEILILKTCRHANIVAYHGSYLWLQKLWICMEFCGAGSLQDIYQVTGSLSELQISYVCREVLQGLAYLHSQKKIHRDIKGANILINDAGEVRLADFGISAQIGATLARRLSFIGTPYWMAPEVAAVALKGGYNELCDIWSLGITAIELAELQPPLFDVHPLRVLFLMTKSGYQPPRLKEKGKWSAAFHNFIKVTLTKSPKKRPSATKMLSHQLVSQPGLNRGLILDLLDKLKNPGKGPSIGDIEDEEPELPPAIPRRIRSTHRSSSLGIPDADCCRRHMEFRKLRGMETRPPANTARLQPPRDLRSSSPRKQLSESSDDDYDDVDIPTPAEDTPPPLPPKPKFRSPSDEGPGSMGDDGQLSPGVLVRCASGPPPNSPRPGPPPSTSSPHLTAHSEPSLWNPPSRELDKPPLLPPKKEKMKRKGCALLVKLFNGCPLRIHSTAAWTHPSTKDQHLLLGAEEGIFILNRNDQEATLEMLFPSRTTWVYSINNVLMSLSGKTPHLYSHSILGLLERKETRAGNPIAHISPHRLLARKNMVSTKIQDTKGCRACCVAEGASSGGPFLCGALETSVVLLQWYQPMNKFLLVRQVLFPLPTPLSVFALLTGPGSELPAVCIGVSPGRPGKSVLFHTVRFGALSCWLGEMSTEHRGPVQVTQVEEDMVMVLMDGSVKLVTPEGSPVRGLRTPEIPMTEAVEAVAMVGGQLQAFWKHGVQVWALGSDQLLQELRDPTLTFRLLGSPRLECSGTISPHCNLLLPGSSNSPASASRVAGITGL

Compound	IC50 [nM]
Cc1c(Nc2cc[nH]c(=O)c2C(=O)Nc2ccc(N3CCN(CCC#N)CC3)cc2)cnc2c1NCCO2 [Example 178, N-(4-(4-(2-cyanoethyl)piperazin-1-yl)phenyl)-4-((8-methyl-2,3-dihydro-1H-pyrido[2,3-b][1,4]oxazin-7-yl)amino)-2-oxo-1,2-dihydropyridine-3-carboxamide]	≤ 10
Cc1c(Nc2cc[nH]c(=O)c2C(=O)Nc2ccc(N3CCN(C(=O)N(C)C)CC3)cc2)cnc2c1NCCO2 [Example 137, N,N-Dimethyl-4-(4-(4-((8-methyl-2,3-dihydro-1H-pyrido[2,3-b][1,4]oxazin-7-yl)amino)-2-oxo-1,2-dihydropyridine-3-carboxamido)phenyl) piperazine-1-carboxamide]	≤ 10
CCN1CCN(c2ccc(NC(=O)c3c(Nc4cnc5c(c4C)NCC(C)O5)cc[nH]c3=O)cc2F)CC1 (centres unmarked) [Example 385, 4-((3,8-dimethyl-2,3-dihydro-1H-pyrido[2,3-b][1,4]oxazin-7-yl)amino)-N-(4-(4-ethylpiperazin-1-yl)-3-fluorophenyl)-2-oxo-1,2-dihydropyridine-3-carboxamide]	10 to 100
CNC(C)C(=O)N1CCN(c2ccc(NC(=O)c3c(Nc4cnc5c(c4C)NCCO5)cc[nH]c3=O)cc2)CC1 (centres unmarked) [Example 354, 4-((8-methyl-2,3-dihydro-1H-pyrido[2,3-b][1,4]oxazin-7-yl)amino)-N-(4-(4-(methylalanyl)piperazin-1-yl)phenyl)-2-oxo-1,2-dihydropyridine-3-carboxamide]	10 to 100
CCC(=O)N1CCN(c2ccc(NC(=O)c3c(Nc4cnc5c(c4C)NCC(C)O5)cc[nH]c3=O)cc2)CC1 (centres unmarked) [Example 362, 4-((3,8-dimethyl-2,3-dihydro-1H-pyrido[2,3-b][1,4]oxazin-7-yl)amino)-2-oxo-N-(4-(4-propionylpiperazin-1-yl)phenyl)-1,2-dihydropyridine-3-carboxamide]	10 to 100
CCn1nc(C(F)(F)F)cc1-c1ccc(NC(=O)c2c(Nc3cnc4c(c3C)NCCO4)cc[nH]c2=O)cc1 [Example 265, N-(4-(1-ethyl-3-(trifluoromethyl)-1H-pyrazol-5-yl)phenyl)-4-((8-methyl-2,3-dihydro-1H-pyrido[2,3-b][1,4]oxazin-7-yl)amino)-2-oxo-1,2-dihydropyridine-3-carboxamide]	10 to 100
Cc1c(Nc2cc[nH]c(=O)c2C(=O)Nc2ccc(N3CCN(C(=O)[C@@H]4C[C@@H]4F)CC3)cc2)cnc2c1NCCO2 [Example 293, N-(4-(4-((1S,2S)-2-fluorocyclopropane-1-carbonyl)piperazin-1-yl)phenyl)-4-((8-methyl-2,3-dihydro-1H-pyrido[2,3-b][1,4]oxazin-7-yl)amino)-2-oxo-1,2-dihydropyridine-3-carboxamide]	≤ 10
Cc1c(Nc2cc[nH]c(=O)c2C(=O)Nc2ccc(N3CCN(C(=O)C(C)(C)C)CC3)cc2)cnc2c1NCCO2 [Example 341, 4-((8-methyl-2,3-dihydro-1H-pyrido[2,3-b][1,4]oxazin-7-yl)amino)-2-oxo-N-(4-(4-pivaloylpiperazin-1-yl)phenyl)-1,2-dihydropyridine-3-carboxamide]	≤ 10
CCC(=O)N1CCN(c2ccc(NC(=O)c3c(Nc4cnc5c(c4C)NCC(C)O5)cc[nH]c3=O)cc2Cl)CC1 (centres unmarked) [Example 313, N-(3-chloro-4-(4-propionylpiperazin-1-yl)phenyl)-4-((3,8-dimethyl-2,3-dihydro-1H-pyrido[2,3-b][1,4]oxazin-7-yl)amino)-2-oxo-1,2-dihydropyridine-3-carboxamide]	10 to 100
Cc1c(Nc2cc[nH]c(=O)c2C(=O)Nc2ccc(N3CCN(C(=O)C4CC(C)(C)C4)CC3)cc2)cnc2c1NCCO2 [Example 304, N-(4-(4-(3,3-dimethylcyclobutane-1-carbonyl)piperazin-1-yl)phenyl)-4-((8-methyl-2,3-dihydro-1H-pyrido[2,3-b][1,4]oxazin-7-yl)amino)-2-oxo-1,2-dihydropyridine-3-carboxamide]	≤ 10
Cc1c(Nc2cc[nH]c(=O)c2C(=O)Nc2ccc(N3CCN(C)CC3)cc2)cnc2c1NCC1(CC1)O2 [Example 190, 4-((8′-methyl-1′,2′-dihydrospiro[cyclopropane-1,3′-pyrido[2,3-b][1,4]oxazin]-7′-yl)amino)-N-(4-(4-methylpiperazin-1-yl)phenyl)-2-oxo-1,2-dihydropyridine-3-carboxamide]	10 to 100
Cc1c(Nc2cc[nH]c(=O)c2C(=O)Nc2ccc(N3CCN(c4cnn(C)c4)CC3)cc2)cnc2c1NCCO2 [Example 410, N-(4-(4-(1-methyl-1H-pyrazol-4-yl)piperazin-1-yl)phenyl)-4-((8-methyl-2,3-dihydro-1H-pyrido[2,3-b][1,4]oxazin-7-yl)amino)-2-oxo-1,2-dihydropyridine-3-carboxamide]	10 to 100
Cc1c(Nc2cc[nH]c(=O)c2C(=O)Nc2ccc(N3CCN(c4ncn(C)n4)CC3)cc2)cnc2c1NCCO2 [Example 339, N-(4-(4-(1-methyl-1H-1,2,4-triazol-3-yl)piperazin-1-yl)phenyl)-4-((8-methyl-2,3-dihydro-1H-pyrido[2,3-b][1,4]oxazin-7-yl)amino)-2-oxo-1,2-dihydropyridine-3-carboxamide]	≤ 10
Cc1c(Nc2cc[nH]c(=O)c2C(=O)Nc2ccc(N3CC4CCC(C3)N4C)cc2)cnc2c1NCC(C)O2 (centres unmarked) [Example 181, 4-((3,8-dimethyl-2,3-dihydro-1H-pyrido[2,3-b][1,4]oxazin-7-yl)amino)-N-(4-(8-methyl-3,8-diazabicyclo[3.2.1]octan-3-yl)phenyl)-2-oxo-1,2-dihydropyridine-3-carboxamide]	10 to 100
Cc1c(Nc2cc[nH]c(=O)c2C(=O)Nc2ccc(N3CCN(C(=O)N4CC5(COC5)C4)CC3)cc2)cnc2c1NCCO2 [Example 321, N-(4-(4-(2-oxa-6-azaspiro[3.3]heptane-6-carbonyl)piperazin-1-yl)phenyl)-4-((8-methyl-2,3-dihydro-1H-pyrido[2,3-b][1,4]oxazin-7-yl)amino)-2-oxo-1,2-dihydropyridine-3-carboxamide]	10 to 100
Cc1c(Nc2cc[nH]c(=O)c2C(=O)Nc2ccc(N3CC4CCC3CN4C)cc2)cnc2c1NCCO2 (centres unmarked) [Example 235, 4-((8-methyl-2,3-dihydro-1H-pyrido[2,3-b][1,4]oxazin-7-yl)amino)-N-(4-(5-methyl-2,5-diazabicyclo[2.2.2]octan-2-yl)phenyl)-2-oxo-1,2-dihydropyridine-3-carboxamide]	≤ 10
Cc1c(Nc2cc[nH]c(=O)c2C(=O)Nc2ccc(N3CCN(CCO)CC3)cc2)cnc2c1NCCO2 [Example 105, N-(4-(4-(2-hydroxyethyl)piperazin-1-yl)phenyl)-4-((8-methyl-2,3-dihydro-1H-pyrido[2,3-b][1,4]oxazin-7-yl)amino)-2-oxo-1,2-dihydropyridine-3-carboxamide]	≤ 10

Continued, values first:

IC50 [nM]	Compound
10 to 100	Cc1c(Nc2cc[nH]c(=O)c2C(=O)Nc2ccc(S(N)(=O)=O)cc2)cnc2c1NCCO2 [Example 210, 4-((8-methyl-2,3-dihydro-1H-pyrido[2,3-b][1,4]oxazin-7-yl)amino)-2-oxo-N-(4-sulfamoylphenyl)-1,2-dihydropyridine-3-carboxamide]
10 to 100	Cc1c(Nc2cc[nH]c(=O)c2C(=O)Nc2ccc(-c3cn[nH]c3)cc2)cnc2c1NCCO2 [Example 144, N-(4-(1H-pyrazol-4-yl)phenyl)-4-((8-methyl-2,3-dihydro-1H-pyrido[2,3-b][1,4]oxazin-7-yl)amino)-2-oxo-1,2-dihydropyridine-3-carboxamide]
10 to 100	Cc1c(Nc2cc[nH]c(=O)c2C(=O)Nc2ccc3cn[nH]c3c2)cnc2c1NCCO2 [Example 237, N-(1H-indazol-6-yl)-4-((8-methyl-2,3-dihydro-1H-pyrido[2,3-b][1,4]oxazin-7-yl)amino)-2-oxo-1,2-dihydropyridine-3-carboxamide]
100 to 1000	Cc1c(Nc2cc[nH]c(=O)c2C(=O)Nc2ccc3c(c2)C(=O)NCC3)cnc2c1NCCO2 [Example 260, 4-((8-methyl-2,3-dihydro-1H-pyrido[2,3-b][1,4]oxazin-7-yl)amino)-2-oxo-N-(1-oxo-1,2,3,4-tetrahydroisoquinolin-7-yl)-1,2-dihydropyridine-3-carboxamide]
≤ 10	Cc1c(Nc2cc[nH]c(=O)c2C(=O)Nc2ccc(N3CCN(C)CC3)c(N)c2)cnc2c1NCCO2 [Example 263, N-(3-Amino-4-(4-methylpiperazin-1-yl)phenyl)-4-((8-methyl-2,3-dihydro-1H-pyrido[2,3-b][1,4]oxazin-7-yl)amino)-2-oxo-1,2-dihydropyridine-3-carboxamide]
≤ 10	Cc1c(Nc2cc[nH]c(=O)c2C(=O)Nc2ccc(N3CCN(C)C[C@@H]3C)cc2)cnc2c1NCCO2 [Example 266, (S)-N-(4-(2,4-dimethylpiperazin-1-yl)phenyl)-4-((8-methyl-2,3-dihydro-1H-pyrido[2,3-b][1,4]oxazin-7-yl)amino)-2-oxo-1,2-dihydropyridine-3-carboxamide]
≤ 10	Cc1c(Nc2cc[nH]c(=O)c2C(=O)Nc2ccc(N3CCN(C)CC3)c(F)c2)cnc2c1NCCO2 [Example 96, N-(3-fluoro-4-(4-methylpiperazin-1-yl)phenyl)-4-((8-methyl-2,3-dihydro-1H-pyrido[2,3-b][1,4]oxazin-7-yl)amino)-2-oxo-1,2-dihydropyridine-3-carboxamide]
10 to 100	Cc1c(Nc2cc[nH]c(=O)c2C(=O)Nc2ccc(Cc3ccncc3)cc2)cnc2c1NCCO2 [Example 233, 4-((8-methyl-2,3-dihydro-1H-pyrido[2,3-b][1,4]oxazin-7-yl)amino)-2-oxo-N-(4-(pyridin-4-ylmethyl)phenyl)-1,2-dihydropyridine-3-carboxamide]
≤ 10	Cc1c(Nc2cc[nH]c(=O)c2C(=O)Nc2ccc(C3CC(=O)N(C)C3)cc2)cnc2c1NCCO2 (centres unmarked) [Example 184, 4-((8-methyl-2,3-dihydro-1H-pyrido[2,3-b][1,4]oxazin-7-yl)amino)-N-(4-(1-methyl-5-oxopyrrolidin-3-yl)phenyl)-2-oxo-1,2-dihydropyridine-3-carboxamide]
